Source: patent US9309304B2, “Glycation cross-link breakers to increase resistance to enzymatic degradation” (NEW YORK SOCIETY FOR THE RUPTURED AND CRIPPLED MAINTAINING …, priority 2012, dated 2016)

How the values were obtained:
[1] = Randomized control trial of treated grafts for ACL reconstruction; assay type: in vivo; settings: for relative risk of negative outcomes (Lachman test, pivot-shift test, Drawer test): 6 and 12 months post-surgery
Protocol: For an ACL reconstruction, a bone-patellar tendon-bone graft (other eligible grafts include hamstring tendon) is harvested from a cadaveric donor per standard collection procedure. Before freezing, the graft tissue is immersed in a sterile filtered isotonic buffered saline solution containing Alagebrium at a concentration of 0.1 mM for 8 hours at a temperature of ranging from about 4° C. to 37° C. Following incubation with the cross-link breaking reagent, the specimen is rinsed with sterile isotonic buffered saline and then is immersed in a rinsing fluid, such as sterile isotonic buffered saline, with a volume of at least 10 times greater than the estimated volume of the specimen. The specimen remains immersed in the rinse fluid for 30 minutes. The rinsing and immersion step is repeated twice more with fresh rinse solution each time. The tissue specimen is then removed from the fluid, excess liquid is allowed to drain, any visible fluid is gently blotted off with sterile gauze, and is then frozen as per standard procedure. […] For an ACL reconstruction, a bone-patellar tendon-bone graft (other eligible grafts include hamstring tendon) is harvested from the patient as per standard collecting procedure. Before use, the graft tissue is wrapped in sterile gauze and is soaked in a sterile filtered isotonic buffered saline solution containing Alagebrium at a concentration of 100 mM for 15 minutes at a temperature ranging from about 4° C. to 37° C. Following incubation with the cross-link breaking reagent, the specimen is unwrapped, rinsed with sterile istonic buffered saline and then is wrapped again with sterile gauze and immersed in a rinsing fluid, such as sterile isotonic buffered saline, with a volume of at least 10 times greater than the estimated volume of the specimen. The specimen remains immersed in the rinse fluid for 15 minutes. The tissue specimen is then removed from the fluid, unwrapped, excess liquid is allowed to drain, any visible fluid is gently blotted off with sterile gauze, and then the graft is utilized as per standard procedure.

[2] = AGE cross-links in treated graft tissue by FTIR spectrum
Protocol: For an ACL reconstruction, a bone-patellar tendon-bone graft (other eligible grafts include hamstring tendon) is harvested from a cadaveric donor per standard collection procedure. Before freezing, the graft tissue is immersed in a sterile filtered isotonic buffered saline solution containing Alagebrium at a concentration of 0.1 mM for 8 hours at a temperature of ranging from about 4° C. to 37° C. Following incubation with the cross-link breaking reagent, the specimen is rinsed with sterile isotonic buffered saline and then is immersed in a rinsing fluid, such as sterile isotonic buffered saline, with a volume of at least 10 times greater than the estimated volume of the specimen. The specimen remains immersed in the rinse fluid for 30 minutes. The rinsing and immersion step is repeated twice more with fresh rinse solution each time. The tissue specimen is then removed from the fluid, excess liquid is allowed to drain, any visible fluid is gently blotted off with sterile gauze, and is then frozen as per standard procedure. For an ACL reconstruction, a bone-patellar tendon-bone graft (other eligible grafts include hamstring tendon) is harvested from the patient as per standard collecting procedure. Before use, the graft tissue is wrapped in sterile gauze and is soaked in a sterile filtered isotonic buffered saline solution containing Alagebrium at a concentration of 100 mM for 15 minutes at a temperature ranging from about 4° C. to 37° C. Following incubation with the cross-link breaking reagent, the specimen is unwrapped, rinsed with sterile istonic buffered saline and then is wrapped again with sterile gauze and immersed in a rinsing fluid, such as sterile isotonic buffered saline, with a volume of at least 10 times greater than the estimated volume of the specimen. The specimen remains immersed in the rinse fluid for 15 minutes. The tissue specimen is then removed from the fluid, unwrapped, excess liquid is allowed to drain, any visible fluid is gently blotted off with sterile gauze, and then the graft is utilized as per standard procedure. […]

[3] = tested on: collagenase; experiment: CEMKATS test of Alagebrium-treated 7-day glycated tendon fibers (Example 6); assay type: biochemical; settings: 15 mM Alagebrium 12 hours
Protocol: 7-day glycated (cross-linked) tendon fibers are immersed for 12 hours in a solution of 15 mM Alagebrium dissolved in PBS at a temperature ranging from about 4° C. to 37° C. The fibers are removed from the solution, rinsed in PBS, and then soaked in fresh PBS for 15 minutes. After this soak, the fibers are removed from the PBS bath, rinsed with fresh PBS. The visible PBS is blotted off and the fibers are interfaced with the CEMKATS system. Mechanical strain is applied as described in Example 1. The fiber reaches a peak stress during loading and subsequently relaxes to an equilibrium stress. Once the specimen reaches equilibrium, collagenase would be added. The resulting change in load would be observed and recorded (which would be converted post-hoc to stress).

[4] = Relative fluorescence of solubilized fibers; assay type: physicochemical, rat; settings: 7 days of 0.2 M ribose exposure, about 460 nm
Protocol: Ribose incorporation into fibers over time was assessed by fluorescence of solubilized fibers following 0 to 10 days of incubation (Verzijl et al. 2002). Fibers were incubated in 0.2 M ribose solution (solution was exchanged with fresh ribose solution at day 3) and sample fibers were removed daily, rinsed in PBS, and then stored at 4° C. until the end of the time course. Fibers were weighed, then dissolved at 60° C. in a 1:20 dilution of papain (Carica Papaya, Roche Diagnostics, Indianapolis, Ind.) in buffer per the commercial protocol at a concentration of 1 mg tendon per 50 uL of papain solution. Relative fluorescence was measured at about 460 nm using a spectrophotometer (340 ATTC, Tecan US, Chapel Hill, N.C.) as reported by Verzijl et al. 2002. Maximum fluorescence was estimated from measurements of fibers incubated in ribose for 5 weeks.

[5] = cadaveric bone-patellar tendon-bone graft, 0.1 mM for 8 hours

relative fluorescence of solubilized rat tail tendon [4] | SMILES | surgical outcome of ACL reconstruction ([1]; operating room treated autograft, 100 mM for 15 minutes) | surgical outcome of ACL reconstruction ([1]; tissue bank treated graft, 0.1 mM for 8 hours) | relative risk of negative outcomes (Lachman test, pivot-shift test, Drawer test) ([1]; versus placebo-treated grafts, operating room treated autograft) | relative risk of negative outcomes (Lachman test, pivot-shift test, Drawer test) ([1]; versus untreated grafts, tissue bank treated graft) | amounts of AGE cross-links (AGE associated absorption peak, FTIR) ([2]; autologous bone-patellar tendon-bone graft, 100 mM for 15 minutes) | amounts of AGE cross-links (AGE associated absorption peak, FTIR) [2, 5] | stiffness of treated specimen [2, 5] | EMK function values versus cross-linked control specimens ([3]; higher strain (above about 3%)) | EMK function values versus cross-linked control specimens ([3]; low strain (less than about 1.25%))
– | Cc1sc[n+](CC(=O)c2ccccc2)c1C.[Cl-] [Alagebrium, 3-phenacyl-4,5-dimethylthiazolium chloride] | improved surgical outcome | improved surgical outcome | lower relative risk | lower relative risk | significantly decreased amounts of AGE cross-links | significantly decreased amounts of AGE cross-links | less stiff after treatment | higher value for the control specimens than the Alagebrium-treated specimens | lower for controls than Alagebrium-treated specimens
significantly increased | O=C[C@H](O)[C@H](O)[C@H](O)CO [ribose, D-Ribose] | – | – | – | – | – | – | – | – | –
